Measurements published in patent US11911386B2, “Methods of treating B-cell proliferative disorder” (BeiGene Switzerland GmbH, priority 2022, dated 2024).
Read-outs that look alike come from different tables or passages of the source.

[1] = any grade, listed as Zanubrutinib
[2] = grade ≥3, listed as Zanubrutinib
[3] = leading to treatment discontinuation

C=CC(=O)N1CCC([C@@H]2CCNc3c(C(N)=O)c(-c4ccc(Oc5ccccc5)cc4)nn32)CC1 [zanubrutinib, (S)-7-(1-acryloylpiperidin-4-yl)-2-(4-phenoxyphenyl)-4,5,6,7-tetrahydropyrazolo[1,5-a]pyrimidine-3-carboxamide]
Treatment discontinuation due to adverse events (ITT): 16.2%
Anemia AESI (any grade): 50 (15.4) n (%)
Anemia TEAE (any grade): 49 (15.1) n (%)
Arthralgia TEAE (any grade): 47 (14.5) n (%)
Atrial fibrillation TEAE (any grade): 15 (4.6) n (%)
Atrial fibrillation and flutter AESI (any grade): 5.2 n (%)
COVID-19 TEAE (any grade): 23.1 n (%)
Contusion TEAE (any grade): 44 (13.6) n (%)
Cough TEAE (any grade): 38 (11.7) n (%)
Diarrhea TEAE (any grade): 16.0 n (%)
Fatigue TEAE (any grade): 31 (9.6) n (%)
Hemorrhage AESI (any grade): 137 (42.3) n (%)
Hypertension AESI (any grade): 23.5 n (%)
Hypertension TEAE (any grade): 21.9 n (%)
Infections AESI (any grade): 71.3 n (%)
Major hemorrhage AESI (any grade): 12 (3.7) n (%)
Muscle spasms TEAE (any grade): 10 (3.1) n (%)
Neutropenia AESI (any grade): 29.3 n (%)
Neutropenia TEAE (any grade): 22.8 n (%)
Opportunistic infection AESI (any grade): 7 (2.2%) n (%)
Pneumonia TEAE (any grade): 34 (10.5) n (%)
Pyrexia TEAE (any grade): 27 (8.3) n (%)
Rash TEAE (any grade): 33 (10.2) n (%)
Secondary primary malignancies AESI (any grade): 40 (12.3) n (%)
Skin cancers AESI (any grade): 21 (6.5) n (%)
Thrombocytopenia AESI (any grade): 42 (13.0) n (%)
Tumor lysis syndrome AESI (any grade): 1 (0.3) n (%)
Upper respiratory tract infection TEAE (any grade): 21.0 n (%)
≥1 AESI (any grade): 294 (90.7) n (%)
≥1 TEAE (any grade): 318 (98.1) n (%)
Atrial fibrillation and flutter AESI [1]: 17 (5.2) n (%)
COVID-19 TEAE [1]: 75 (23.1) n (%)
Diarrhea TEAE [1]: 52 (16.0) n (%)
Hypertension AESI [1]: 76 (23.5) n (%)
Hypertension TEAE [1]: 71 (21.9) n (%)
Infections AESI [1]: 231 (71.3) n (%)
Neutropenia AESI [1]: 95 (29.3) n (%)
Neutropenia TEAE [1]: 74 (22.8) n (%)
Opportunistic infection AESI [1]: 7 (2.2) n (%)
Upper respiratory tract infection TEAE [1]: 68 (21.0) n (%)
Acute coronary syndrome (cardiac AE): 1 (0.3)
Acute myocardial infarction (cardiac AE): 1 (0.3)
Angina pectoris (cardiac AE): 4 (1.2)
Aortic valve incompetence (cardiac AE): 0
Aortic valve stenosis (cardiac AE): 1 (0.3)
Arrhythmia (cardiac AE): 1 (0.3)
Arrhythmia supraventricular (cardiac AE): 3 (0.9)
Arteriosclerosis coronary artery (cardiac AE): 1 (0.3)
Atrial fibrillation (cardiac AE): 15 (4.6)
Atrial flutter (cardiac AE): 2 (0.6)
Atrial tachycardia (cardiac AE): 0
Atrioventricular block (cardiac AE): 0
Atrioventricular block first degree (cardiac AE): 5 (1.5)
Bradyarrhythmia (cardiac AE): 1 (0.3)
Bradycardia (cardiac AE): 0
Bundle branch block left (cardiac AE): 3 (0.9)
Bundle branch block right (cardiac AE): 2 (0.6)
Cardiac arrest (cardiac AE): 0
Cardiac discomfort (cardiac AE): 0
Cardiac disorder (cardiac AE): 0
Cardiac failure (cardiac AE): 5 (1.5)
Cardiac failure acute (cardiac AE): 0
Cardiac failure chronic (cardiac AE): 0
Cardiac failure congestive (cardiac AE): 1 (0.3)
Congestive cardiomyopathy (cardiac AE): 0
Coronary artery disease (cardiac AE): 2 (0.6)
Coronary artery insufficiency (cardiac AE): 1 (0.3)
Defect conduction intraventricular (cardiac AE): 1 (0.3)
Dilatation atrial (cardiac AE): 1 (0.3)
Extrasystoles (cardiac AE): 1 (0.3)
Left atrial hypertrophy (cardiac AE): 1 (0.3)
Left ventricular dysfunction (cardiac AE): 1 (0.3)
Left ventricular failure (cardiac AE): 1 (0.3)
Mitral valve incompetence (cardiac AE): 1 (0.3)
Myocardial fibrosis (cardiac AE): 1 (0.3)
Myocardial infarction (cardiac AE): 1 (0.3)
Myocardial ischemia (cardiac AE): 3 (0.9)
Palpitations (cardiac AE): 9 (2.8)
Pericardial effusion (cardiac AE): 1 (0.3)
Sinoatrial block (cardiac AE): 1 (0.3)
Sinus arrhythmia (cardiac AE): 1 (0.3)
Sinus bradycardia (cardiac AE): 5 (1.5)
Sinus node dysfunction (cardiac AE): 0
Sinus tachycardia (cardiac AE): 4 (1.2)
Supraventricular extrasystoles (cardiac AE): 4 (1.2)
Supraventricular tachycardia (cardiac AE): 2 (0.6)
Tachycardia (cardiac AE): 1 (0.3)
Ventricular arrhythmia (cardiac AE): 2 (0.6)
Ventricular extrasystoles (cardiac AE): 3 (0.9)
Ventricular fibrillation (cardiac AE): 0
Ventricular hypokinesia (cardiac AE): 1 (0.3)
Anemia AESI (grade ≥3): 7 (2.2) n (%)
Atrial fibrillation and flutter AESI (grade ≥3): 2.5 n (%)
Hemorrhage AESI (grade ≥3): 11 (3.4) n (%)
Hypertension AESI (grade ≥3): 15.1 n (%)
Infections AESI (grade ≥3): 26.5 n (%)
Major hemorrhage AESI (grade ≥3): 11 (3.4) n (%)
Neutropenia AESI (grade ≥3): 68 (21.0) n (%)
Opportunistic infection AESI (grade ≥3): 5 (1.5) n (%)
Secondary primary malignancies AESI (grade ≥3): 22 (6.8) n (%)
Skin cancers AESI (grade ≥3): 7 (2.2) n (%)
Thrombocytopenia AESI (grade ≥3): 11 (3.4) n (%)
Tumor lysis syndrome AESI (grade ≥3): 1 (0.3) n (%)
≥1 AESI (grade ≥3): 186 (57.4) n (%)
Atrial fibrillation and flutter AESI [2]: 8 (2.5) n (%)
Hypertension AESI [2]: 49 (15.1) n (%)
Infections AESI [2]: 86 (26.5) n (%)
Anemia (grade ≥3 TEAE): 7 (2.2)
Atrial fibrillation (grade ≥3 TEAE): 6 (1.9)
Blood pressure increased (grade ≥3 TEAE): 4 (1.2)
COVID-19 (grade ≥3 TEAE): 22 (6.8)
COVID-19 pneumonia (grade ≥3 TEAE): 23 (7.1)
Neutrophil count decreased (grade ≥3 TEAE): 17 (5.2)
Pneumonia (grade ≥3 TEAE): 19 (5.9)
Syncope (grade ≥3 TEAE): 9 (2.8)
Thrombocytopenia (grade ≥3 TEAE): 9 (2.8)
AEs leading to dose reduction (human, in vivo): 40 (12.3)
Bronchopulmonary aspergillosis (human, in vivo): 2 (0.6)
COVID-19 TEAE Grade 3 or higher (human, in vivo): 40 (12.3) n (%)
Fungal abscess central nervous system (human, in vivo): 1 (0.3)
Herpes ophthalmic (human, in vivo): 0
Ophthalmic herpes zoster (human, in vivo): 0
Osteomyelitis fungal (human, in vivo): 0
Pneumonia fungal (human, in vivo): 2 (0.6)
Pneumonia legionella (human, in vivo): 0
Pulmonary tuberculosis (human, in vivo): 0
AEs leading to dose interruption (in vivo): 162 (50.0)
AEs leading to treatment discontinuation (in vivo): 50 (15.4)
Deaths due to cardiac events (in vivo): no patient receiving zanubrutinib died due to a cardiac disorder AE
Grade ≥3 TEAE (in vivo): 218 (67.3)
Serious AEs (in vivo): 136 (42.0)
Atrial fibrillation [3]: 0
Cardiac arrest [3]: 0
Cardiac failure [3]: 0
Cardiac failure acute [3]: 0
Congestive cardiomyopathy [3]: 0
Myocardial infarction [3]: 0
Palpitations [3]: 0
Ventricular extrasystoles [3]: 1 (0.3)
Ventricular fibrillation [3]: 0
Pneumocystis jirovecii pneumonia (opportunistic infection AESI): 1 (0.3)
Pneumonia cryptococcal (opportunistic infection AESI): 1 (0.3)
